Measurements reported in BigSolDB 2.1.

CCCCN1CCCCC1C(=O)Nc1c(C)cccc1C.Cl (stereo unspecified)
solubility (mole fraction)
Conditions | 293.15 K | 298.15 K | 303.15 K | 308.15 K | 313.15 K | 318.15 K | 323.15 K | 328.15 K | 333.15 K
in DMF | 0.0036 | 0.0049 | 0.0062 | 0.0079 | 0.0096 | 0.0117 | 0.0128 | 0.0149 | 0.0172
in acetic acid | 0.0322 | 0.0367 | 0.0399 | 0.0475 | 0.0601 | 0.0702 | 0.0879 | 0.109 | 0.13
in ethanol | 0.0087 | 0.0099 | 0.0115 | 0.0139 | 0.0169 | 0.0207 | 0.0254 | 0.0312 | 0.0372
in isopropanol | 0.002 | 0.0023 | 0.0028 | 0.0032 | 0.0037 | 0.0045 | 0.0051 | 0.006 | 0.0069
in methanol | 0.0116 | 0.014 | 0.0167 | 0.0206 | 0.0249 | 0.0295 | 0.0346 | 0.0407 | –
in n-butanol | 0.0108 | 0.0121 | 0.0142 | 0.0164 | 0.0198 | 0.0236 | 0.0288 | 0.0355 | 0.0412
in n-propanol | 0.0051 | 0.0058 | 0.0084 | 0.0101 | 0.0135 | 0.0172 | 0.0216 | 0.0281 | 0.0342
in water | 0.0017 | 0.0019 | 0.0021 | 0.0022 | 0.0025 | 0.0028 | 0.0032 | 0.0036 | 0.0041
